Laboratory results taken from the Kinase Knowledgebase extract (Sharma et al. 2016).

Target: CDK2 (UniProt P24941)
Assay: Enzyme Assay

SMILES	IC50 [nM]
O=C1NC(=O)C(c2cnn3ccccc23)=C1c1cn2c3c(cccc13)CN(C(=O)N1CCOCC1)CC2	3030
O=C1NC(=O)C(c2cnc3ncccn23)=C1c1cn2c3c(cccc13)CN(C(=O)N1CCOCC1)CC2	> 20100
O=C1NC(=O)C(c2cncc3ccoc23)=C1c1cn2c3c(cccc13)CN(C(=O)N1CCCCC1)CC2	35.7
O=C1NC(=O)C(c2cnc3cnccn23)=C1c1cn2c3c(cccc13)CN(C(=O)N1CCOCC1)CC2	> 20200
O=C1NC(=O)C(c2cn3c4c(cccc24)CNCC3)=C1c1cccc2c1OCC2	33
O=C1NC(=O)C(c2cnc3ncccn23)=C1c1cn2c3c(cccc13)CN(C(=O)N1CCCCC1)CC2	> 20000
O=C1NC(=O)C(c2cn3c4c(cccc24)CNCC3)=C1c1cccc2c1ccn2CCCO	297
O=C1NC(=O)C(c2cn3c4c(cccc24)CNCC3)=C1c1ccc2c(c1)OCO2	1130
O=C1NC(=O)C(c2cnc3cnccn23)=C1c1cn2c3c(cccc13)CNCC2	5580
CN(C)C(=O)N1CCn2cc(C3=C(c4cnn5ccccc45)C(=O)NC3=O)c3cccc(c32)C1	2200
O=C1NC(=O)C(c2cncc3ccoc23)=C1c1cn2c3c(cccc13)CNCC2	6.4
O=C1NC(=O)C(c2cnc3cccnn23)=C1c1cn2c3c(cccc13)CNCC2	67.2
O=C1NC(=O)C(c2cncc3ccoc23)=C1c1cn2c3c(cccc13)CN(C(=O)N1CCOCC1)CC2	39.2
O=C1NC(=O)C(c2cn3c4c(cccc24)CNCC3)=C1c1cccc2c1OCO2	91
CC(=O)N1CCn2cc(C3=C(c4cccc5ccoc45)C(=O)NC3=O)c3cccc(c32)C1	10.5
O=C1NC(=O)C(c2cccc3ccsc23)=C1c1cn2c3c(cccc13)CNCC2	90
CC(=O)N1CCn2cc(C3=C(c4cncc5ccoc45)C(=O)NC3=O)c3cccc(c32)C1	8.1
O=C1NC(=O)C(c2cnc3cccnn23)=C1c1cn2c3c(cccc13)CN(C(=O)N1CCCCC1)CC2	434
CC(C)C(=O)N1CCn2cc(C3=C(c4cnn5ccccc45)C(=O)NC3=O)c3cccc(c32)C1	1630

SMILES	IC50 [nM]
O=C1NC(=O)C(c2cnc3cnccn23)=C1c1cn2c3c(cccc13)CN(C(=O)N1CCCCC1)CC2	> 20000
O=C1NC(=O)C(c2cnn3ccccc23)=C1c1cn2c3c(cccc13)CNCC2	750
O=C1NC(=O)C(c2cnc3ccccn23)=C1c1cn2c3c(cccc13)CN(C(=O)C1CCOCC1)CC2	5500
O=C1NC(=O)C(c2cn3c4c(cccc24)CNCC3)=C1c1cccc2occc12	205
CC(=O)N1CCn2cc(C3=C(c4cccc5c4OCO5)C(=O)NC3=O)c3cccc(c32)C1	60
Cn1ccc2c(C3=C(c4cn5c6c(cccc46)CNCC5)C(=O)NC3=O)cccc21	363
O=C1NC(=O)C(c2cnc3ccncn23)=C1c1cn2c3c(cccc13)CN(C(=O)N1CCOCC1)CC2	> 20000
CN(C)C(=O)N1CCn2cc(C3=C(c4cccc5c4OCO5)C(=O)NC3=O)c3cccc(c32)C1	445
O=C1NC(=O)C(c2cnc3ncccn23)=C1c1cn2c3c(cccc13)CNCC2	8760
CN(C)C(=O)N1CCn2cc(C3=C(c4cccc5ccoc45)C(=O)NC3=O)c3cccc(c32)C1	67.5
O=C1NC(=O)C(c2cnc3ccccn23)=C1c1cn2c3c(cccc13)CNCC2	756
CC(C)C(=O)N1CCn2cc(C3=C(c4cnc5ccccn45)C(=O)NC3=O)c3cccc(c32)C1	3560
CC(=O)N1CCn2cc(C3=C(c4cnc5ccccn45)C(=O)NC3=O)c3cccc(c32)C1	629
O=C1NC(=O)C(c2cccc3ccoc23)=C1c1cn2c3c(cccc13)CNCC2	10.2
CCC(=O)N1CCn2cc(C3=C(c4cncc5ccoc45)C(=O)NC3=O)c3cccc(c32)C1	13
CC(=O)N1CCn2cc(C3=C(c4cccc5c4OCC5)C(=O)NC3=O)c3cccc(c32)C1	17.6
CC(=O)N1CCn2cc(C3=C(c4cccc5ccsc45)C(=O)NC3=O)c3cccc(c32)C1	76
CN(C)C(=O)N1CCn2cc(C3=C(c4cncc5ccoc45)C(=O)NC3=O)c3cccc(c32)C1	15.6
O=C1NC(=O)C(c2cnc3ccncn23)=C1c1cn2c3c(cccc13)CNCC2	7590
